The record followed here is patent publication US8361968B2 (Takeda Pharmaceutical Company Limited, priority 2002, dated 2013).

Numbered stars: 1 amine (or outer) side, 2 acyl side, 3 side chain; on linkers, the order of the positions; unused ones are H or OH. Square brackets hold non-standard residues; d marks the D form. Peptide text beside a SMILES is read from it. X10 = NC(=O)C[C@@H](C(=O)[*:2])N(C[C@@H](N)Cc1ccc(O)cc1)[*:1]; X1 = O=C([C@H](Cc1ccc2ccccc2n1)N[*:1])[*:2]; Phe(2-Cl) = N[C@@H](Cc1ccccc1Cl)C(=O)O; Phe(4-F) = N[C@@H](Cc1ccc(F)cc1)C(=O)O; 2Nal = N[C@@H](Cc1ccc2ccccc2c1)C(=O)O; Arg(Me) = CNC(=N)NCCC[C@H](N)C(=O)O; 4Pal = N[C@@H](Cc1ccncc1)C(=O)O; d3Pal = N[C@H](Cc1cccnc1)C(=O)O; d4Pal = N[C@H](Cc1ccncc1)C(=O)O; Cha = N[C@@H](CC1CCCCC1)C(=O)O; azaGly = NNC(=O)O

The target in the test is hOT7T175 (Homo sapiens, UniProt Q969F8, L364H). Nature of the test: Intracellular Ca ion level-increasing activity using FLIPR in hOT7T175/CHO. The class given is cell-based. Further details: expressed in transfected cells; host or cells: CHO/dhfr- cells, obtained from ATCC. Particulars: relative, Metastin (1-54) = 1.
Chain of hOT7T175 (Q969F8 whole entry L364H): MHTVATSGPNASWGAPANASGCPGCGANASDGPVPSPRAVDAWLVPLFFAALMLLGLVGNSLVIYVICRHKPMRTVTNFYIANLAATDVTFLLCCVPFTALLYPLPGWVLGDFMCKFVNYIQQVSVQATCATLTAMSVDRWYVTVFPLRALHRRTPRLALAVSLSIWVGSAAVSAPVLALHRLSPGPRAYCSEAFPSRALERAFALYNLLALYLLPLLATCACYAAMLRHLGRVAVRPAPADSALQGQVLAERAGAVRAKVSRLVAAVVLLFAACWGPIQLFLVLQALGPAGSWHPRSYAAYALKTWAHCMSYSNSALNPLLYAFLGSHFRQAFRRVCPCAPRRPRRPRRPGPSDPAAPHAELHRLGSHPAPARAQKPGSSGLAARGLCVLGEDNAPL

In the case of `CNC(=N)NCCC[C@H](NC(=O)[C@H](CC(C)C)NC(=O)[C@H](C)NC(=O)[C@H](Cc1ccccc1)NC(=O)[C@H](CO)NC(=O)[C@H](CC(N)=O)NC(=O)[C@H](Cc1c[nH]c2ccccc12)NC(=O)[C@H](CC(N)=O)NC(=O)[C@H](N)Cc1ccc(O)cc1)C(=O)N[C@@H](Cc1ccccc1)C(N)=O` [Compound No. 204] (H-[dY]NWNSFAL[Arg(Me)]F-NH2), the “Specific Activity (intracellular Ca ion level-increasing activity)” value turned out to be 5.

For the compound `CNC(=N)NCCC[C@H](NC(=O)[C@H](CC(C)C)NC(=O)NNC(=O)[C@H](Cc1ccccc1)NC(=O)[C@H](CO)NC(=O)[C@H](CC(N)=O)NC(=O)[C@H](CC1CCCCC1)NC(=O)[C@@H](Cc1ccc(O)cc1)NC(=O)[C@H](N)Cc1cccnc1)C(=O)N[C@@H](Cc1ccccc1)C(N)=O` [Compound No. 291, D-Pya(3)-D-Tyr-Cha-Asn-Ser-Phe-AzaGly-Leu-Arg(Me)-Phe-NH2] (H-[d3Pal][dY][Cha]NSF[azaGly]L[Arg(Me)]F-NH2; N-terminus assumed), the “Specific Activity (intracellular Ca ion level-increasing activity)” value is 2.

As for `CC(C)C[C@H](NC(=O)CNC(=O)[C@H](Cc1ccccc1)NC(=O)[C@H](CO)NC(=O)[C@H](CC(N)=O)NC(=O)[C@H](Cc1c[nH]c2ccccc12)NC(=O)[C@H](CC(N)=O)NC[C@@H](N)Cc1ccc(O)cc1)C(=O)N[C@@H](CCCNC(=N)N)C(=O)N[C@@H](Cc1ccccc1)C(N)=O` [Compound No. 294] (H-[X10]WNSFGLRF-NH2), the “Specific Activity (intracellular Ca ion level-increasing activity)” value was 10.

In the case of “D-Tyr-D-Pya(4)-Asn-Ser-Phe-AzaGly-Leu-Arg(Me)-Trp-NH2 [Compound No. 385]”, the “Specific Activity (intracellular Ca ion level-increasing activity)” value is 10.

In the case of `CNC(=N)NCCC[C@H](NC(=O)[C@H](CC(C)C)NC(=O)NNC(=O)[C@H](Cc1ccccc1)NC(=O)[C@H](CO)NC(=O)[C@H](CC(N)=O)NC(=O)[C@@H](NC(=O)[C@H](N)Cc1ccc(O)cc1)[C@@H](C)O)C(=O)N[C@@H](Cc1ccccc1)C(N)=O` [Compound No. 241, D-Tyr-Thr-Asn-Ser-Phe-AzaGly-Leu-Arg(Me)-Phe-NH2] (H-[dY]TNSF[azaGly]L[Arg(Me)]F-NH2), the “Specific Activity (intracellular Ca ion level-increasing activity)” value worked out at 1.

Consider `CNC(=N)NCCC[C@H](NC(=O)[C@H](CC(C)C)NC(=O)CNC(=O)[C@H](Cc1ccccc1)NC(=O)[C@H](CO)NC(=O)[C@H](CC(N)=O)NC(=O)[C@H](Cc1c[nH]c2ccccc12)NC(=O)[C@H](CC(N)=O)NC(=O)[C@H](N)Cc1ccc(O)cc1)C(=O)N[C@@H](Cc1c[nH]c2ccccc12)C(N)=O` [Compound No. 174] (H-[dY]NWNSFGL[Arg(Me)]W-NH2), for which the “Specific Activity (intracellular Ca ion level-increasing activity)” value came out at 10.

`CNC(=N)NCCC[C@H](NC(=O)[C@H](CC(C)C)NC(=O)CNC(=O)[C@H](Cc1ccccc1)NC(=O)[C@H](C)NC(=O)[C@H](CC(N)=O)NC(=O)[C@H](Cc1c[nH]c2ccccc12)NC(=O)[C@H](CC(N)=O)NC(=O)[C@H](N)Cc1ccc(O)cc1)C(=O)N[C@@H](Cc1ccccc1)C(N)=O` [Compound No. 212] (H-[dY]NWNAFGL[Arg(Me)]F-NH2): the “Specific Activity (intracellular Ca ion level-increasing activity)” value worked out at 10.

On to `CNC(=N)NCCC[C@H](NC(=O)[C@H](CC(C)C)NC(=O)NNC(=O)[C@H](Cc1ccccc1)NC(=O)[C@H](CO)NC(=O)[C@H](CC(N)=O)NC(=O)[C@@H](NC(=O)[C@H](CC(N)=O)NC(=O)[C@H](N)Cc1ccc(O)cc1)C(C)C)C(=O)N[C@@H](Cc1ccccc1)C(N)=O` [Compound No. 234, D-Tyr-Asn-Val-Asn-Ser-Phe-AzaGly-Leu-Arg(Me)-Phe-NH2] (H-[dY]NVNSF[azaGly]L[Arg(Me)]F-NH2; N-terminus assumed), for which the “Specific Activity (intracellular Ca ion level-increasing activity)” value was 1.

As for `CNC(=N)NCCC[C@H](NC(=O)[C@H](CC(C)C)NC(=O)NNC(=O)[C@H](Cc1ccccc1)NC(=O)[C@H](CO)NC(=O)[C@H](CC(N)=O)NC(=O)[C@H](Cc1ccc2ccccc2c1)NC(=O)[C@H](N)Cc1ccc(O)cc1)C(=O)N[C@@H](Cc1ccccc1)C(N)=O` [Compound No. 255, D-Tyr-Nal(2)-Asn-Ser-Phe-AzaGly-Leu-Arg(Me)-Phe-NH2] (H-[dY][2Nal]NSF[azaGly]L[Arg(Me)]F-NH2), the “Specific Activity (intracellular Ca ion level-increasing activity)” value was determined as 1.

As to `CNC(=N)NCCC[C@H](NC(=O)[C@H](CC(C)C)NC(=O)NNC(=O)[C@H](Cc1ccccc1)NC(=O)[C@H](CO)NC(=O)[C@H](CC(N)=O)NC(=O)[C@H](Cc1ccc2ccccc2c1)NC(=O)[C@H](CC(N)=O)NC(=O)[C@H](N)Cc1ccc(O)cc1)C(=O)N[C@@H](Cc1ccccc1)C(N)=O` [Compound No. 246, D-Tyr-Asn-Nal(2)-Asn-Ser-Phe-AzaGly-Leu-Arg(Me)-Phe-NH2] (H-[dY]N[2Nal]NSF[azaGly]L[Arg(Me)]F-NH2), the “Specific Activity (intracellular Ca ion level-increasing activity)” value came to 2.

With `CNC(=N)NCCC[C@H](NC(=O)[C@H](CC(C)C)NC(=O)CNC(=O)[C@H](Cc1ccccc1)NC(=O)[C@H](CO)NC(=O)[C@H](CC(N)=O)NC(=O)[C@H](Cc1c[nH]c2ccccc12)NC(=O)[C@@H](CC(N)=O)NC(=O)[C@H](N)Cc1ccc(O)cc1)C(=O)N[C@@H](Cc1ccccc1)C(N)=O` [Compound No. 230], the “Specific Activity (intracellular Ca ion level-increasing activity)” value came out at 10.

For `CNC(=N)NCCC[C@H](NC(=O)[C@H](CC(C)C)NC(=O)NNC(=O)[C@H](Cc1ccccc1)NC(=O)[C@H](CO)NC(=O)[C@H](CC(N)=O)NC(=O)[C@H](Cc1c[nH]c2ccccc12)NC(=O)[C@H](CC(N)=O)NC(=O)[C@@H](C)N)C(=O)N[C@@H](Cc1ccccc1)C(N)=O` [Compound No. 259, D-Ala-Asn-Trp-Asn-Ser-Phe-AzaGly-Leu-Arg(Me)-Phe-NH2] (H-[dA]NWNSF[azaGly]L[Arg(Me)]F-NH2), the “Specific Activity (intracellular Ca ion level-increasing activity)” value stood at 1.

Regarding `CNC(=N)NCCC[C@H](NC(=O)[C@H](CC(C)C)NC(=O)CNC(=O)[C@H](Cc1ccccc1)NC(=O)[C@H](CO)NC(=O)[C@H](CC(N)=O)NC(=O)[C@@H](NC(=O)[C@H](CC(N)=O)NC(=O)[C@H](N)Cc1ccc(O)cc1)C(C)C)C(=O)N[C@@H](Cc1ccccc1)C(N)=O` [Compound No. 229] (H-[dY]NVNSFGL[Arg(Me)]F-NH2), the “Specific Activity (intracellular Ca ion level-increasing activity)” value is 1.

As to `CNC(=N)NCCC[C@H](NC(=O)[C@H](CC(C)C)NC(=O)NNC(=O)[C@H](Cc1ccccc1)NC(=O)[C@H](CO)NC(=O)[C@H](CC(N)=O)NC(=O)[C@H](CC1CCCCC1)NC(=O)[C@@H](CC(N)=O)NC(=O)[C@H](N)Cc1ccncc1)C(=O)N[C@@H](Cc1ccccc1)C(N)=O` [Compound No. 306, D-Pya(4)-D-Asn-Cha-Asn-Ser-Phe-AzaGly-Leu-Arg(Me)-Phe-NH2] (H-[d4Pal][dN][Cha]NSF[azaGly]L[Arg(Me)]F-NH2), the “Specific Activity (intracellular Ca ion level-increasing activity)” value was found to be 2.

For `CNC(=N)NCCC[C@H](NC(=O)[C@H](CC(C)C)NC(=O)NNC(=O)[C@H](Cc1ccccc1)NC(=O)[C@H](CO)NC(=O)[C@H](CC(N)=O)NC(=O)[C@H](Cc1c[nH]c2ccccc12)NC(=O)[C@H](CC(N)=O)NC[C@@H](N)Cc1ccc(O)cc1)C(=O)N[C@@H](Cc1ccccc1)C(N)=O` [Compound No. 299, TyrΨ(CH2NH)Asn-Trp-Asn-Ser-Phe-AzaGly-Leu-Arg(Me)-Phe-NH2] (H-[X10]WNSF[azaGly]L[Arg(Me)]F-NH2), the “Specific Activity (intracellular Ca ion level-increasing activity)” value is given as 5.

Turning to `CC(C)C[C@H](NC(=O)CNC(=O)[C@H](Cc1ccccc1)NC(=O)[C@H](CO)NC(=O)[C@H](CC(N)=O)NC(=O)[C@H](Cc1c[nH]c2ccccc12)NC(=O)[C@H](CC(N)=O)NC(=O)[C@@H](N)Cc1ccc(O)cc1)C(=O)N[C@@H](CCCNC(=N)N)C(=O)N[C@@H](Cc1ccc2ccccc2n1)C(N)=O` [Compound No. 201] (H-YNWNSFGLR[X1]-NH2), the “Specific Activity (intracellular Ca ion level-increasing activity)” value is 1.

As to `CNC(=N)NCCC[C@H](NC(=O)[C@H](CC(C)C)NC(=O)NNC(=O)[C@H](Cc1ccccc1)NC(=O)[C@H](CO)NC(=O)[C@H](CC(N)=O)NC(=O)[C@H](Cc1ccccc1Cl)NC(=O)[C@H](CC(N)=O)NC(=O)[C@H](N)Cc1ccc(O)cc1)C(=O)N[C@@H](Cc1ccccc1)C(N)=O` [Compound No. 247, D-Tyr-Asn-Phe(2Cl)-Asn-Ser-Phe-AzaGly-Leu-Arg(Me)-Phe-NH2] (H-[dY]N[Phe(2-Cl)]NSF[azaGly]L[Arg(Me)]F-NH2), the “Specific Activity (intracellular Ca ion level-increasing activity)” value came to 1.

As to `CC(C)C[C@H](NC(=O)CNC(=O)[C@H](Cc1ccccc1)NC(=O)[C@H](CO)NC(=O)[C@H](CC(N)=O)NC(=O)[C@H](Cc1c[nH]c2ccccc12)NC(=O)[C@H](CC(N)=O)NC(=O)[C@@H](N)Cc1ccc(O)cc1)C(=O)N[C@@H](CCCNC(=N)N)C(=O)N[C@@H](Cc1ccccc1F)C(N)=O` [Compound No. 19], the “Specific Activity (intracellular Ca ion level-increasing activity)” value is listed as 2.

Take `CC(C)C[C@H](NC(=O)CNC(=O)[C@H](Cc1ccccc1)NC(=O)[C@H](CO)NC(=O)[C@H](CC(N)=O)NC(=O)[C@H](Cc1c[nH]c2ccccc12)NC(=O)[C@H](CC(N)=O)NC(=O)[C@@H](N)Cc1ccc(O)cc1)C(=O)N[C@@H](CCCNC(=N)N)C(=O)N[C@@H](Cc1ccncc1)C(N)=O` [Compound No. 17] (H-YNWNSFGLR[4Pal]-NH2): the “Specific Activity (intracellular Ca ion level-increasing activity)” value is listed as 5.

With `CNC(=N)NCCC[C@H](NC(=O)[C@H](CC(C)C)NC(=O)NNC(=O)[C@H](Cc1ccccc1)NC(=O)[C@H](CO)NC(=O)[C@H](CC(N)=O)NC(=O)[C@H](Cc1ccncc1)NC(=O)[C@@H](CC(N)=O)NC(=O)[C@H](N)Cc1ccc(O)cc1)C(=O)N[C@@H](Cc1ccc(F)cc1)C(N)=O` [Compound No. 317, D-Tyr-D-Asn-Pya(4)-Asn-Ser-Phe-AzaGly-Leu-Arg(Me)-Phe(4F)-NH2] (H-[dY][dN][4Pal]NSF[azaGly]L[Arg(Me)][Phe(4-F)]-NH2), the “Specific Activity (intracellular Ca ion level-increasing activity)” value is recorded as 1.

Regarding `CNC(=N)NCCC[C@H](NC(=O)[C@H](CC(C)C)NC(=O)NNC(=O)[C@H](Cc1ccccc1)NC(=O)[C@H](CO)NC(=O)[C@H](CC(N)=O)NC(=O)[C@H](Cc1ccncc1)NC(=O)[C@@H](CC(N)=O)NC(=O)[C@@H](N)Cc1ccc(O)cc1)C(=O)N[C@@H](Cc1ccccc1)C(N)=O` [Compound No. 304, Tyr-D-Asn-Pya(4)-Asn-Ser-Phe-AzaGly-Leu-Arg(Me)-Phe-NH2] (H-Y[dN][4Pal]NSF[azaGly]L[Arg(Me)]F-NH2), the “Specific Activity (intracellular Ca ion level-increasing activity)” value was determined as 3.
